Laboratory results taken from the NIST ThermoML archive (doi:10.1021/je900276q).
Values joined by “and” are separate entries in the source; they are usually repeats but may differ in a detail not shown here. Identical values can stand only once.

Conditions: Crystal, Calculated from knudsen effusion weight loss

[I][Ga]([I])[I] [gallium iodide]
Conditions | vapor or sublimation pressure
344.5 K | 0.0001445 kPa
346 K | 0.0001698 kPa and 0.0001445 kPa
347 K | 0.000195 kPa
348 K | 0.000195 kPa
348.5 K | 0.0001445 kPa
349 K | 0.000195 kPa
349.5 K | 0.0002455 kPa and 0.0002951 kPa
350 K | 0.000195 kPa
351.5 K | 0.0003388 kPa
352 K | 0.0002455 kPa
352.5 K | 0.0003388 kPa
354 K | 0.0004365 kPa and 0.0003388 kPa
355 K | 0.0003388 kPa and 0.000389 kPa
356 K | 0.0004365 kPa
357 K | 0.0004365 kPa
357.5 K | 0.0006761 kPa and 0.0004898 kPa
359.5 K | 0.000537 kPa
361.5 K | 0.0006761 kPa
362 K | 0.000871 kPa
364 K | 0.0009333 kPa and 0.0007762 kPa
365.5 K | 0.0009772 kPa
367 K | 0.001148 kPa
367.5 K | 0.00123 kPa
368.5 K | 0.001122 kPa and 0.00123 kPa
370 K | 0.001413 kPa
372 K | 0.001445 kPa and 0.00166 kPa
372.5 K | 0.00166 kPa
373 K | 0.001905 kPa and 0.001738 kPa
374.5 K | 0.002042 kPa and 0.001995 kPa
375.5 K | 0.002291 kPa
377 K | 0.002399 kPa
377.5 K | 0.002692 kPa
378 K | 0.002951 kPa
379 K | 0.002951 kPa
380 K | 0.002951 kPa
381.5 K | 0.003715 kPa
382 K | 0.004266 kPa
383 K | 0.00389 kPa
383.5 K | 0.004169 kPa
384 K | 0.004898 kPa
387.5 K | 0.006607 kPa and 0.006026 kPa and 0.00631 kPa
389.5 K | 0.007244 kPa
390.5 K | 0.00871 kPa and 0.007244 kPa
391.5 K | 0.00871 kPa
393.5 K | 0.01096 kPa and 0.01 kPa
394 K | 0.009772 kPa
397 K | 0.0138 kPa
398 K | 0.01349 kPa
400.5 K | 0.01778 kPa
401 K | 0.01698 kPa
